Data reported in US20200163984A1, “USE OF ISOVALERYL SPIRAMYCIN I, II AND/OR III IN MANUFACTURING MEDICAMENT FOR TREATING AND/OR PREVENTING TUMOR, AND MEDICAMENT” (SHENYANG FUYANG PHARMACEUTICAL TECHNOLOGY CO., LTD., priority 2017, published 2020).
≈ marks a conversion by molar mass, not a printed value.

Experiments:
[1] = tested on: transplanted tumor of human gastric adenocarcinoma cell SGC7901; test: SGC7901 transplanted tumor in nude mice
Procedure: Then cell concentration was adjusted to 1×10^7/ml with matrigel, then each nude mouse was inoculated subcutaneously with 0.2 ml of cells at its right armpit and recorded as the first day of inoculation. When the tumor grows to be greater than or equal to 100 mm^3, the mice were randomly divided into 11 groups with 6 mice in each group: a model group, a cyclophosphamide group, isovaleryl spiramycin I groups with doses of 25, 50 and 100 mg/kg, isovaleryl spiramycin II groups with doses of 25, 50 and 100 mg/kg, and isovaleryl spiramycin III groups with doses of 25, 50 and 100 mg/kg. Each group was continuously administered intragastrically for 30 days with a dose of 20 ml/kg. The mice were sacrificed the next day after drug withdrawal and the indicators were tested. The long diameter and short diameter of the tumor, and the body weight of each mouse were recorded every 3 days from drug administration to nude mouse sacrifice.
The body weight of the nude mice and the long diameter (a) and short diameter (b) of the transplanted tumor were measured every 3 days, and the tumor volume (v), relative tumor volume (RTV) and relative tumor proliferation rate (T/C) are calculated respectively according to the following formulas, wherein V=a×b^2/2; RTV=V/V0 (V0 is the tumor volume before administration, V is the tumor volume before sacrifice), and T/C (%)=treatment group RTV/model control group RTV×100%.
Each mouse was weighed and sacrificed. After the tumor was completely stripped off from the body of the mouse, the non-tumor tissues such as blood stains and fat were removed to weigh the tumor and calculate the tumor growth inhibition rate. The average tumor weight of each group of mice is used as an indicator of efficacy. Tumor growth inhibition rate (%)=(1−the average tumor weight of the treatment group/the average tumor weight of the model group)×100%.

[2] = tested on: human hepatoma cells HepG2; conditions: HepG2, MTT, 48 hours
Procedure: (§1) The purpose of the assay is to evaluate the in vitro cell proliferation inhibition or cytotoxic activity of a tested sample.
(§2) MCF-7, MDA-MB-231, HepG2, A549, H460, H1299, 786-0, 769-P, U251, A172, HeLa, PC3, PANC-1, TE-1, SGC7901, and HT-29 were adherent tumor cells. The adherent tumor cells in the logarithmic growth phase were selected and digested with trypsin, then were prepared into a 4 to 5×10^4/ml cell suspension by a medium containing 10% fetal bovine serum. And the cell suspension was inoculated in a 96-well culture plate, and each well was 100 μL. The 96-well culture plate was cultured at 37° C. and 5% CO2 for 24 hours. The experimental group was replaced with a new culture medium containing different concentrations of the sample to be tested, namely, isovaleryl spiramycin I, isovaleryl spiramycin II, or isovaleryl spiramycin III, while the control group was replaced with a culture medium containing the same volume of solvent. Each group was set up with 3 parallel wells that were cultured at 37° C. and 5% CO2 for 48 hours. After the supernatant was removed, the wells were washed carefully for 3 times with PBS. And 100 μL of freshly prepared culture medium containing 0.5 mg/ml MTT was added to each well for continuous incubation for 4 hours at 37° C. After the supernatant was removed carefully, 150 μL of DMSO was added to each well, and after the material was mixed for 10 minutes with a micro-oscillator, the optical density value was measured at 492 nm with a microplate reader.
(§3) The inhibition rate of the medicament on tumor cell growth is calculated according to the following formula:
(§4) Tumor cell growth inhibition rate (%)=[A492 (negative control)−A492 (dosing group)]/A492 (negative control)×100%
(§5) And the half-inhibitory concentration (IC50) of the sample is determined therefrom.

[3] = tested on: human esophageal cancer cell TE-1; conditions: TE-1, MTT, 48 hours
Procedure: as §1, §2, §3, §4, §5

[4] = tested on: human renal cell adenocarcinoma cell 769-P; conditions: MTT, 48 hours
Procedure: as §1, §2, §3, §4, §5

[5] = tested on: human renal clear cell adenocarcinoma cell 786-O; conditions: MTT, 48 hours
Procedure: as §1, §2, §3, §4, §5

[6] = tested on: human breast cancer cells MCF-7; conditions: MCF-7, MTT, 48 hours
Procedure: as §1, §2, §3, §4, §5

[7] = tested on: human pancreatic cancer cell PANC-1; conditions: PANC-1, MTT, 48 hours
Procedure: as §1, §2, §3, §4, §5

[8] = tested on: human gastric adenocarcinoma cell SGC7901; conditions: SGC-7901, MTT, 48 hours
Procedure: as §1, §2, §3, §4, §5

[9] = tested on: human colon cancer cell HT-29; conditions: HT-29, MTT, 48 hours
Procedure: as §1, §2, §3, §4, §5

[10] = tested on: human large cell lung cancer cells H460; conditions: H460, MTT, 48 hours
Procedure: as §1, §2, §3, §4, §5

[11] = tested on: human glioma cell U251; conditions: U251, MTT, 48 hours
Procedure: as §1, §2, §3, §4, §5

[12] = tested on: human prostate cancer cell PC3; conditions: PC3, MTT, 48 hours
Procedure: as §1, §2, §3, §4, §5

[13] = tested on: human non-small cell lung cancer cells A549; conditions: A549, MTT, 48 hours
Procedure: as §1, §2, §3, §4, §5

[14] = tested on: human cervical cancer cell HeLa; conditions: MTT, 48 hours
Procedure: as §1, §2, §3, §4, §5

[15] = tested on: human glioblastoma cell A172; conditions: A172, MTT, 48 hours
Procedure: as §1, §2, §3, §4, §5

[16] = tested on: human large cell lung cancer cells H1299; conditions: H1299, MTT, 48 hours
Procedure: as §1, §2, §3, §4, §5

[17] = tested on: human breast cancer cells MDA-MB-231; conditions: MDA-MB-231, MTT, 48 hours
Procedure: as §1, §2, §3, §4, §5

[18] = SGC7901, 12.5 mg/kg (low dose) i.g. 30 days
[19] = SGC7901, 25 mg/kg (medium dose) i.g. 30 days
[20] = SGC7901, 50 mg/kg (high dose) i.g. 30 days

**Q.** Which results are given for CCC(=O)O[C@@H]1CC(=O)O[C@H](C)C/C=C/C=C/[C@H](O[C@H]2CC[C@H](N(C)C)[C@@H](C)O2)[C@H](C)C[C@H](CC=O)[C@H](O[C@@H]2O[C@H](C)[C@@H](O[C@H]3C[C@@](C)(O)[C@@H](OC(=O)CC(C)C)[C@H](C)O3)[C@H](N(C)C)[C@H]2O)[C@H]1OC [Isovaleryl spiramycin III, isovaleryl spiramycin III]?
**A.** Inhibition Rate (tumor growth inhibition rate) [1, 18]: 21.68%; Relative Tumor Proliferation Rate (T/C) [1, 18]: 65.48%; Relative Tumor Volume (RTV) [1, 18]: 5.52 ± 4.03; Tumor Volume (d 1) [1, 18]: 186.22 ± 80.26 mm3; Tumor Volume (d 30) [1, 18]: 1326.06 ± 96.10 mm3; Tumor Weight [1, 18]: 1.23 ± 0.70 g; Inhibition Rate (tumor growth inhibition rate) [1, 19]: 41.13%; Relative Tumor Proliferation Rate (T/C) [1, 19]: 49.44%; Relative Tumor Volume (RTV) [1, 19]: 3.77 ± 6.51; Tumor Volume (d 1) [1, 19]: 274.12 ± 83.50 mm3; Tumor Volume (d 30) [1, 19]: 1473.96 ± 798.75 mm3; Tumor Weight [1, 19]: 0.92 ± 0.40 g; Inhibition Rate (tumor growth inhibition rate) [1, 20]: 63.34%; Relative Tumor Proliferation Rate (T/C) [1, 20]: 30.34%; Relative Tumor Volume (RTV) [1, 20]: 3.66 ± 1.35; Tumor Volume (d 1) [1, 20]: 295.39 ± 188.69 mm3; Tumor Volume (d 30) [1, 20]: 974.67 ± 839.14 mm3; Tumor Weight [1, 20]: 0.58 ± 0.52 g; tumor volume and relative tumor volume compared with the model group ([1]; SGC7901, low, medium and high doses, P<0.05): significantly lower; mouse weight compared with the model group ([1]; mouse, in vivo): no significant changes; IC50 [2]: 27.42 ± 3.52 µg/mL (≈ 27.9 µM); IC50 [3]: 20.19 ± 1.83 µg/mL (≈ 20.5 µM); IC50 [4]: 10.75 ± 0.56 µg/mL (≈ 10.9 µM); IC50 [5]: 10.52 ± 0.56 µg/mL (≈ 10.7 µM); IC50 [6]: 32.44 ± 1.18 µg/mL (≈ 33 µM); IC50 [7]: 13.18 ± 0.23 µg/mL (≈ 13.4 µM); IC50 [8]: 17.26 ± 0.79 µg/mL (≈ 17.6 µM); IC50 [9]: 22.68 ± 2.32 µg/mL (≈ 23.1 µM); IC50 [10]: 28.80 ± 0.19 µg/mL (≈ 29.3 µM); IC50 [11]: 16.46 ± 1.54 µg/mL (≈ 16.7 µM); IC50 [12]: 16.37 ± 0.27 µg/mL (≈ 16.6 µM); IC50 [13]: 28.84 ± 1.73 µg/mL (≈ 29.3 µM); IC50 [14]: 15.86 ± 0.62 µg/mL (≈ 16.1 µM); IC50 [15]: 16.17 ± 0.54 µg/mL (≈ 16.4 µM); IC50 [16]: 32.40 ± 0.41 µg/mL (≈ 33 µM); IC50 [17]: 29.47 ± 0.28 µg/mL (≈ 30 µM)
